Experiment: Blood sampling for THC and CBD plasma concentration after single oral dosing
Details: for concentration at 0 h / concentration at 1 h / concentration at 1.5 h / concentration at 2 h / concentration at 3 h / concentration at 4 h / concentration at 12 h / concentration at 16 h / concentration at 24 h / concentration at 72 h / concentration at 0.67 h / concentration at 6 h / concentration at 8 h / concentration at 32 h / concentration at 48 h: oral, THC level in blood plasma fraction; for AUC: AUC for THC concentration, canine
Procedure: Two compositions, IVP1 and IVP2, were administered in varying amounts in the study.
Dosage volumes were calculated prior to Day 0, to provide the target dosage in mg/kg bodyweight based on actual dog bodyweights and IVP active ingredient composition based on the Certificates of Analysis.
Blood samples of approximately 5 mL were collected at each drug concentration sampling time-point from each animal using 22-gauge needles and 5 mL syringes.
The data points from Table 4 and Table 5 were also plotted and these graphs are set out in FIGS. 1-16.

[1] = dog, plasma, individual dogs 1-4, 0.24 mg/kg THC + 0.12 mg/kg CBD oral once
[2] = dog, plasma, individual dogs 5-8, 0.12 mg/kg THC + 0.24 mg/kg CBD oral once
[3] = dog, plasma, mean of dogs 1-4, 0.24 mg/kg THC + 0.12 mg/kg CBD oral once
[4] = dog, plasma, mean of dogs 5-8, 0.12 mg/kg THC + 0.24 mg/kg CBD oral once

CCCCCc1cc(O)c2c(c1)OC(C)(C)[C@@H]1CCC(C)=C[C@@H]21 [THC, Δ^9-Tetrahydrocannabinol]
THC in the subject's blood (72 h after administration): detectable | concentration at 0 h [1]: 0 µg/mL | concentration at 1 h [1]: 45.2 ng/mL | concentration at 1.5 h [1]: 30.1 ng/mL | concentration at 2 h [1]: 25.6 ng/mL | concentration at 0 h [2]: 0 µg/mL | concentration at 2 h [2]: 22.3 ng/mL | concentration at 3 h [2]: 8.19 ng/mL | concentration at 4 h [2]: 4.19 ng/mL | concentration at 12 h [2]: 0.56 ng/mL | concentration at 16 h [2]: 0.34 ng/mL | concentration at 24 h [2]: 0.23 ng/mL | concentration at 72 h [2]: 0 ng/mL | concentration at 0 h [3]: 0 µg/mL | concentration at 0.67 h [3]: 39 ng/mL | concentration at 1 h [3]: 40.7 ng/mL | concentration at 1.5 h [3]: 32.6 ng/mL | concentration at 2 h [3]: 26.1 ng/mL | concentration at 3 h [3]: 15.8 ng/mL | concentration at 4 h [3]: 10.1 ng/mL | concentration at 6 h [3]: 6.33 ng/mL | concentration at 8 h [3]: 3.98 ng/mL | concentration at 12 h [3]: 1.36 ng/mL | concentration at 16 h [3]: 0.75 ng/mL | concentration at 24 h [3]: 0.41 ng/mL | concentration at 32 h [3]: 0.43 ng/mL | concentration at 48 h [3]: 0.24 ng/mL | concentration at 72 h [3]: 0.16 ng/mL | concentration at 0 h [4]: 0 µg/mL | concentration at 0.67 h [4]: 27.9 ng/mL | concentration at 1 h [4]: 36.8 ng/mL | concentration at 1.5 h [4]: 27.7 ng/mL | concentration at 2 h [4]: 18 ng/mL | concentration at 3 h [4]: 7.84 ng/mL | concentration at 4 h [4]: 4.29 ng/mL | concentration at 6 h [4]: 3 ng/mL | concentration at 8 h [4]: 2.38 ng/mL | concentration at 12 h [4]: 0.65 ng/mL | concentration at 16 h [4]: 0.44 ng/mL | concentration at 24 h [4]: 0.28 ng/mL | concentration at 32 h [4]: 0.28 ng/mL | concentration at 48 h [4]: 0.09 ng/mL | concentration at 72 h [4]: 0 ng/mL | AUC(0-inf) (dog, plasma, po): 0.0006 µg·h/mL | Cmax (dog, plasma, po): 19 to 71.3 ng/mL | half-life (dog, plasma, po): 18.4 h | AUC (dog, plasma, po, 0.12 mg/kg, 0.12 mg/kg THC in combination with 0.24 mg/kg CBD): 0.09 to 0.11 µg·h/mL | AUC (dog, plasma, po, 0.24 mg/kg, 0.24 mg/kg THC in combination with 0.12 mg/kg CBD): 0.145 to 0.17 µg·h/mL

— patent publication US12083094B2, “Cannabinoid composition and methods of treatment using the same” (CANNPAL ANIMAL THERAPEUTICS LIMITED, priority 2018, dated 2024)
